The values that follow come from patent publication US20090221596A1, “Substtituted aryl oximes” (priority 2006, published 2009).

The structures appear in SMILES notation.

Holding throughout (assay type): in vivo
For experiment [1], the system named is Spodoptera frugiperda. As to the kind of experiment: Spodoptera frugiperda test (spray treatment). Particulars: foliar, 168 h, 500 g a. i./ha, 7 d, sprayed maize leaf discs, army worm caterpillars, read-out: % 7 d (activity; 100% = all caterpillars killed). The text has this:
An appropriate preparation of active compound is produced by mixing 1 part by weight of active compound with the stated amounts of solvent and emulsifier and diluting the concentrate to the desired concentration using emulsifier-containing water.
Maize leaf discs (Zea mays) are sprayed with a preparation of active compound at the desired concentration and after they have dried off they are populated with caterpillars of the army worm (Spodoptera frugiperda).
After the desired time the activity is measured in %. Here 100% means that all of the caterpillars have been killed; 0% means that no caterpillar has been killed.

The test system of experiment [2] is Phaedon cochleariae. Put plainly: Phaedon test (spray treatment). Particulars: 500 g a. i./ha, sprayed Chinese cabbage leaves, mustard beetle larvae. The text has this:
[table] An appropriate preparation of active compound is produced by mixing 1 part by weight of active compound with the stated amounts of solvent and emulsifier and diluting the concentrate to the desired concentration using emulsifier-containing water. Chinese cabbage leaves (Brassica pekinensis) are sprayed with a preparation of active compound at the desired concentration and after they have dried off they are populated with larvae of the mustard beetle (Phaedon cochleariae). After the desired time the activity is measured in %.

For experiment [3], the system named is Aedes Aegypti. Put plainly: Aedes Aegypti test. Particulars: 20 g a. i./ha, third larval stage (L3). The protocol:
An appropriate preparation of active compound is produced by mixing the active compound with the stated amounts of solvent and diluting the concentrate to the desired concentration with water.
The Aedsae aegypti larvae (third larval stage, L3) are treated with a preparation of active compound at the desired concentration.
After the desired time the activity is measured in %. Here 100%, means that all of the Aedsae aegypti have been killed; 0% means that no Aedsae aegypti have been killed, and -1 denotes that no evaluation was possible.

Take `COc1c(Cl)cc(OCC=C(Cl)Cl)cc1/C(C)=N/OCCc1ccc(NC(=O)OC(C)(C)C)cc1` [Example 41]: the pest or weed control at 500 g/ha in experiment [1] was 100%.

With `COc1c(Cl)cc(OCC=C(Cl)Cl)cc1/C(C)=N/OCc1ccc(Oc2ccc(SC)cc2)cc1` [Example 49], the pest or weed control at 500 g/ha in experiment [1] came out at 100%.

With `COc1c(Cl)cc(OCC=C(Cl)Cl)cc1/C(C)=N/OC(C)c1ccccc1` (centres unmarked) [Example 45], in experiment [1], the pest or weed control at 500 g/ha was 83%.

As to `COc1c(Cl)cc(OCC=C(Cl)Cl)cc1/C(C)=N/OCc1ccc(OC(F)(F)F)cc1` [Example 29], the pest or weed control at 500 g/ha in experiment [1] was found to be 100%.

Turning to `COc1c(Cl)cc(OCC=C(Cl)Cl)cc1/C(C)=N/OCCCCOc1ncc(C(F)(F)F)cc1Cl` [Example 23], in experiment [1], the pest or weed control at 500 g/ha turned out to be 100%.

In the case of `COc1c(Cl)cc(OCC=C(Cl)Cl)cc1/C(C)=N/OCCCc1ccc(F)cc1` [Example 42], the pest or weed control at 500 g/ha in experiment [1] worked out at 100%.

Turning to `COc1c(Cl)cc(OCC=C(Cl)Cl)cc1/C(C)=N/OCCCCOc1ccc(C(F)(F)F)cn1` [Example 22], in experiment [1], the pest or weed control at 500 g/ha turned out to be 100%.

In the case of `COc1c(Cl)cc(OCC=C(Cl)Cl)cc1/C(C)=N/OCc1ccc(F)c(Oc2ccccc2)c1` [Example 30], the pest or weed control at 500 g/ha in experiment [1] was found to be 100%.

With `COc1c(Cl)cc(OCC=C(Cl)Cl)cc1/C(C)=N/OCCc1ccc([N+](=O)[O-])cc1` [Example 39], the pest or weed control at 500 g/ha in experiment [1] stood at 100%.

Consider `COc1c(Cl)cc(OCC=C(Cl)Cl)cc1C(=NO)C(C)C` (racemic) [Example 14, 1-[3-Chloro-5-(3,3-dichloroallyloxy)-2-methoxyphenyl]-2-methylpropan-1-one oxime], for which the “% 7 d (activity; 100% = all beetle larvae killed)” value in experiment [2] worked out at 100%. For the same compound, the “% 2 d (activity; 100% = all Aedes aegypti killed)” value in experiment [3] amounted to 80%.

`COc1c(Cl)cc(OCC=C(Cl)Cl)cc1/C(C)=N/OCCOc1ccc(C(F)(F)F)cn1` [Example 21]: the pest or weed control at 500 g/ha in experiment [1] is 100%.

In the case of `COc1c(Cl)cc(OCC=C(Cl)Cl)cc1/C(C)=N/OCCc1ccc(NC(=O)C2(C)CC2)cc1` [Example 40], the pest or weed control at 500 g/ha in experiment [1] turned out to be 100%.

As for `COc1c(Cl)cc(OCC=C(Cl)Cl)cc1/C(C)=N/OCCCCOc1c(Cl)cc(C(F)(F)F)cc1Cl` [Example 24], the pest or weed control at 500 g/ha in experiment [1] is 100%.
